US9879250B2, “Protein-stabilizing agent and protein-stabilizing method” (NOF CORPORATION, priority 2014, dated 2018)

Test: Dissolution in phosphate buffer when preparing the protein stabilization solution
Type: physicochemical
Conditions: phosphate buffer (pH 7.4)
Protocol: Two protein stabilizer solutions were prepared by dissolving the compound produced in Synthesis Example 1 in a phosphate buffer (pH 7.4) in such a manner that the final concentrations were controlled at 1.000% by mass (Example 1-1-1) and 0.100% by mass (Example 1-1-2) shown in Table 1 respectively.
Preparation of a protein stabilization solution was tested in the same manner as Example 1-1 except for using the compound produced in Comparative Synthesis Example 1. However, the compound produced in Comparative Synthesis Example 1 was not dissolved in the phosphate buffer, so that the protein stabilization effect could not evaluated.

CCCCCCCCCCCCCCCCCCCCSCC(C)C(=O)OCCOP(=O)([O-])OCC[N+](C)(C)C (stereo not shown) [Comparative Synthesis Example 1, 2-[3-(eicosasulfanyl)-2-methylpropionyloxy]ethyl-2-(trimethylammonio)ethyl phosphate]
Dissolution in the phosphate buffer: not dissolved
